This note sets out measurements from patent US8772498B2, “Alkylamine-substituted dicyanopyridine and amino acid ester prodrugs thereof” (Bayer Intellectual Property GmbH, priority 2009, dated 2014).

Molecules are shown by their SMILES.

Series [1] deals with T1, adenosine A2a receptor (Homo sapiens, UniProt P29274).
T1 construct: expressed in transfected cells; host or cells: CHO (Chinese Hamster Ovary)
In words: Indirect determination of adenosine agonism by gene expression (luciferase), A2a cells. The class given is cell-based. The note with it: CHO cells, luciferase readout. From the text: (§1) B-1. Indirect Determination of the Adenosine Agonism by Way of Gene Expression
(§2) Cells of the CHO (Chinese Hamster Ovary) permanent cell line are transfected stably with the cDNA for the adenosine receptor subtypes A1, A2a and A2b. The adenosine A1 receptors are coupled to the adenylate cyclase by way of G, proteins, while the adenosine A2a and A2b receptors are coupled by way of Gs proteins. In correspondence with this, the formation of cAMP in the cell is inhibited or stimulated, respectively. After that, expression of the luciferase is modulated by way of a cAMP-dependent promoter. The luciferase test is optimized, with the aim of high sensitivity and reproducibility, low variance and good suitability for implementation on a robot system, by varying several test parameters, such as cell density, duration of the growth phase and the test incubation, forskolin concentration and medium composition. The following test protocol is used for pharmacologically characterizing cells and for the robot-assisted substance screening:
(§3) The stock cultures are grown, at 37° C. and under 5% CO2, in DMEM/F12 medium containing 10% FCS (fetal calf serum) and in each case split 1:10 after 2-3 days. The test cultures are seeded in 384-well plates with 2000 cells per well and grown at 37° C. for approx. 48 hours. The medium is then replaced with a physiological sodium chloride solution (130 mM sodium chloride, 5 mM potassium chloride, 2 mM calcium chloride, 20 mM HEPES, 1 mM magnesium chloride hexahydrate, 5 mM sodium bicarbonate, pH 7.4). The substances to be tested, which are dissolved in DMSO, are pipetted into the test cultures (maximum final concentration of DMSO in the test mixture: 0.5%) in a dilution series of from 5×10^−11 M to 3×10^−6 M (final concentration). 10 minutes later, forskolin is added to the A1 cells and all the cultures are subsequently incubated at 37° C. for four hours. After that, 35 μl of a solution which is composed of 50% lysis reagent (30 mM disodium hydrogenphosphate, 10% glycerol, 3% TritonX100, 25 mM TrisHCl, 2 mM dithiotreitol (DTT), pH 7.8) and 50% luciferase substrate solution (2.5 mM ATP, 0.5 mM luciferin, 0.1 mM coenzyme A, 10 mM tricine, 1.35 mM magnesium sulfate, 15 mM DTT, pH 7.8) are added to the test cultures, which are shaken for approx. 1 minute and the luciferase activity is measured using a camera system. The ECK values are determined, i.e., the concentrations at which 50% of the luciferase answer is inhibited in the case of the A1 cell, and, respectively, 50% of the maximum stimulation with the corresponding substance is achieved in the case of the A2b and A2a cells.
(§4) Table 1 below lists the ECK values of representative working examples for the receptor stimulation on adenosine A1, A2a and A2b receptor subtypes: […]

For series [2], the target named is T2, adenosine A1 receptor (Homo sapiens, UniProt P30542).
T2 construct: expressed in transfected cells; host or cells: CHO (Chinese Hamster Ovary)
T2 sequence (P30542 1-326): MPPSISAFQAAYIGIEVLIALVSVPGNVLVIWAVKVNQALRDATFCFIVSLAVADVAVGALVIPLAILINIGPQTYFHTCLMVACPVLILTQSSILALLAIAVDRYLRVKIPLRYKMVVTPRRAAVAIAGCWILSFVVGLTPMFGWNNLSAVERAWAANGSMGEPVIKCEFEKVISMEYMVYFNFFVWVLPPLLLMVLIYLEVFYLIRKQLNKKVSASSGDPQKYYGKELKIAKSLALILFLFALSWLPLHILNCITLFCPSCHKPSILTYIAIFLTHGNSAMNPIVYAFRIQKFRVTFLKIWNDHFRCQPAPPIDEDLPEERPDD
Put plainly: Indirect determination of adenosine agonism by gene expression (luciferase), A1 cells. Format: cell-based. The settings on record: CHO cells, luciferase readout, 1 μM forskolin.
Description: as §1, §2, §3, §4

For series [3], the target named is T3, adenosine A2b receptor (Homo sapiens, UniProt P29275).
T3 construct: expressed in transfected cells; host or cells: CHO (Chinese Hamster Ovary)
T3 sequence (P29275 1-332): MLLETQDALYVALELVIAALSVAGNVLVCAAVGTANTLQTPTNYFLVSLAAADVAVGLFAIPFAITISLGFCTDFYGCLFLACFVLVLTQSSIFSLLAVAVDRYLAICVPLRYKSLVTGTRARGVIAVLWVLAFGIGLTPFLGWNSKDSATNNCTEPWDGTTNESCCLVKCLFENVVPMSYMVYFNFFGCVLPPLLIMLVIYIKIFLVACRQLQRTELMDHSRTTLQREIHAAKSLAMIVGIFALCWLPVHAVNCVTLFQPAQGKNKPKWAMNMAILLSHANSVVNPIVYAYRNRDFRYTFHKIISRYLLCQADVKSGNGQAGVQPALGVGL
In words: Indirect determination of adenosine agonism by gene expression (luciferase), A2b cells. The note with it: CHO cells, luciferase readout. Format: cell-based.
Description: as §1, §2, §3, §4

Series [4] concerns mice (strain: CD1). In words: Locomotor action in the treadmill experiment. The note with it: oral. Format: in vivo. From the text: B-7. Test of Adenosine A1 Receptor Agonists on Locomotor Action in the Treadmill Experiment To determine the action of adenosine A1 receptor agonists on locomotor function, the running behavior of mice (strain: CD1) in treadmills (M. Weber et al., Psychopharmacology 2008, in print) is examined. To get the mice accustomed to voluntary use of the treadmill, 2-3 weeks prior to the start of the experiment the animals are isolated in cages with a treadmill and trained. 2 weeks prior to the start of the experiment, the movements of the mice in the treadmill are recorded by a photo cell using a computer, and various running parameters such as, for example, the distance run in a day, the individual distances covered, and also their distribution over the day are determined. According to their natural running behavior, the animals are randomized into groups (8-12 animals) (control group and 1—a plurality of substance groups). After the initial 2-week phase, the animals are treated orally with the substances to be tested. Here, single doses or else increasing dosages (for example 0.3-1-3-10-30 mg/kg) are administered. The substances are tested in two independent experiments. Between 2 experiments, there are at least 3 days where the animals are not administered any substances. The running behavior of the animals is observed and recorded for 24 hours after administration. Evaluation of the running intervals and the total distance covered takes place over a period of several hours during the main activity period of the mice. Effects are stated in percent of the control.

Series [5] in a line: Determination of the solubility in 5% strength aqueous dextrose solution. The settings on record: result in words. Format: physicochemical. As for the experimental part: B-8. Determination of Solubility, Stability and Liberation Behavior a) Determination of the Solubility:
The test substance is suspended in 5% strength aqueous dextrose solution. This suspension is shaken at room temperature for 24 h. After ultracentrifugation at 224 000 g for 30 min, the supernatant is diluted with DMSO and analyzed by HPLC. A two-point calibration plot of the test compound in DMSO is used for quantification.
Agilent 1100 with DAD (G1315A), quat. pump (G1311A), autosampler CTC HTS PAL, degasser (G1322A) and column thermostat (G1316A); column: Phenomenex Gemini C18, 5 μm, 50 mm×2 mm; temperature: 40° C.; eluent A: water/phosphoric acid pH 2; eluent B: acetonitrile; flow rate: 0.7 ml/min; gradient: 0-0.5 min 85% A, 15% B; ramp: 0.5-3 min 10% A, 90% B; 3-3.5 min 10% A, 90% B; ramp: 3.5-4 min 85% A, 15% B; 4-5 min 85% A, 15% B.
Agilent 1100 with DAD (G1315A), quat. pump (G1311A), autosampler CTC HTS PAL, degasser (G1322A) and column thermostat (G1316A); column: VDSoptilab Kromasil 100 C18, 3.5 μm, 60 mm×2.1 mm; temperature: 30° C.; eluent A: water+5 ml perchloric acid/I; eluent B: acetonitrile; flow rate: 0.75 ml/min; gradient: 0-0.5 min 98% A, 2% B; ramp: 0.5-4.5 min 10% A, 90% B; 4.5-6 min 10% A, 90% B; ramp: 6.5-6.7 min 98% A, 2% B; 6.7-7.5 min 98% A, 2% B.

In series [6] the test system is spontaneously hypertensive rats. In words: Measurement of blood pressure and heart rate on awake rats (telemetry). Format: in vivo. The settings on record: maximum reduction in heart rate, oral administration of 3 mg/kg, awake SH rats. As for the experimental part:
B-5. Measurement of Blood Pressure and Heart Rate
Awake spontaneously hypertensive rats (SH-Ratten) carrying an internal transmitter capable of measuring permanently both blood pressure and heart rate (telemetric monitoring of hemodynamic parameters) and sitting in a cage fitted with motion sensors are orally administered test substances in various dosages. Blood pressure and heart rate and changes thereof, and also the movements and the activity of the animals are then recorded and evaluated for 24 hours.

T1 sequence (P29274 whole entry): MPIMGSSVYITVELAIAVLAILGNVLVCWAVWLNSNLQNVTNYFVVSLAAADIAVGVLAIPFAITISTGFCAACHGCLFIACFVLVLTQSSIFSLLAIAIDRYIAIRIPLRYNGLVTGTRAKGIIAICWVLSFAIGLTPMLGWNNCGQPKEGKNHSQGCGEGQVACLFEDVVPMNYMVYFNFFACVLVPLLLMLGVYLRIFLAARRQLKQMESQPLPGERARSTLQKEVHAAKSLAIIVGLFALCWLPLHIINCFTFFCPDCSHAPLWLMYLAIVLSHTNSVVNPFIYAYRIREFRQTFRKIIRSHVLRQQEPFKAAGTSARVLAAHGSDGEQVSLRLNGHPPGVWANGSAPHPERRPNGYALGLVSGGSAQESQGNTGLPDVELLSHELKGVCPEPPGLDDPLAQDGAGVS

With `N#Cc1c(NC2CC2)nc(SCc2csc(-c3ccc(Cl)cc3)n2)c(C#N)c1-c1ccc(OCCO)cc1` [Example 9], the EC50 in series [1] came out at 281 nM; in series [2], 0.7 nM; in series [3], 231 nM.
Turning to `COC1CCN(c2nc(SCc3csc(-c4ccc(Cl)cc4)n3)c(C#N)c(-c3ccc(OCCO)cc3)c2C#N)CC1` [Example 24, 2-({(2-(4-chlorophenyl)-1,3-thiazol-4-yl)methyl}sulfanyl)-4-(4-(2-hydroxyethoxy)phenyl)-6-(4-methoxypiperidin-1-yl)pyridine-3,5-dicarbonitrile], the EC50 in series [1] worked out at 287 nM; in series [2], 0.6 nM; in series [3], 675 nM.
`CCN(C)c1nc(SCc2csc(-c3ccc(Cl)cc3)n2)c(C#N)c(-c2ccc(OCCO)cc2)c1C#N` [Example 5, 2-({(2-(4-Chlorophenyl)-1,3-thiazol-4-yl)methyl}sulfanyl)-6-(ethyl(methyl)amino)-4-(4-(2-hydroxyethoxy)phenyl)pyridine-3,5-dicarbonitrile]: the EC50 in series [1] stood at 315 nM; in series [2], 0.5 nM; in series [3], 150 nM.
On to `N#Cc1c(SCc2csc(-c3ccc(Cl)cc3)n2)nc(N2CCCCC2)c(C#N)c1-c1ccc(OCCO)cc1` [Example 13], for which, in series [4], the “Reduction of the total distance run by 1 mg/kg” value (shortened to “Reduction … by 1 mg/kg”) is recorded as 0%.
As to `N#Cc1c(SCc2csc(-c3ccc(Cl)cc3)n2)nc(N2CCOCC2)c(C#N)c1-c1ccc(OCCO)cc1` [Example 17, 2-({(2-(4-chlorophenyl)-1,3-thiazol-4-yl)methyl}sulfanyl)-4-(4-(2-hydroxyethoxy)phenyl)-6-(morpholin-4-yl)pyridine-3,5-dicarbonitrile], the half-maximal effective concentration (EC50) in series [2] turned out to be 0.3 nM; in series [3], 55 nM.
As to `N#Cc1c(NCCF)nc(SCc2csc(-c3ccc(Cl)cc3)n2)c(C#N)c1-c1ccc(OCCO)cc1` [Example 33, 2-({(2-(4-Chlorophenyl)-1,3-thiazol-4-yl)methyl}sulfanyl)-6-((2-fluoroethyl)amino)-4-(4-(2-hydroxyethoxy)phenyl)pyridine-3,5-dicarbonitrile], the values for the EC50 in series [1], in series [2] and in series [3] were 27 nM, 0.05 nM and 900 nM, respectively. In addition, the “Reduction … by 1 mg/kg” value in series [4] is given as 24%.
As for `N#Cc1c(SCc2csc(-c3ccc(Cl)cc3)n2)nc(N2CCCC2)c(C#N)c1-c1ccc(OCCO)cc1` [Example 1], the EC50 in series [1] stood at 673 nM; in series [2], 0.1 nM; in series [3], 80 nM. Moreover, the “Reduction … by 1 mg/kg” value in series [4] was 0%. In addition, the “Solubility of the active substance” value in series [5] is given as “below the detection limit”. Besides, the Heart rate reduction in series [6] is −20%.
Consider `CCNc1nc(SCc2csc(-c3ccc(Cl)cc3)n2)c(C#N)c(-c2ccc(OCCO)cc2)c1C#N` [Example 3, 2-({(2-(4-Chlorophenyl)-1,3-thiazol-4-yl)methyl}sulfanyl)-6-(ethylamino)-4-(4-(2-hydroxy-ethoxy)phenyl)pyridine-3,5-dicarbonitrile], for which the concentration giving a half-maximal response (EC50) came out at 282 nM in series [1], 0.3 nM in series [2] and 138 nM in series [3].
`CNc1nc(SCc2csc(-c3ccc(Cl)cc3)n2)c(C#N)c(-c2ccc(OCCO)cc2)c1C#N` [Example 2, 2-({(2-(4-Chlorophenyl)-1,3-thiazol-4-yl)methyl}sulfanyl)-4-(4-(2-hydroxyethoxy)phenyl)-6-(methylamino)pyridine-3,5-dicarbonitrile]: the “Solubility of the active substance” value in series [5] is listed as “below the detection limit”. The Heart rate reduction in series [6] was −45%.
In the case of `COCCN(C)c1nc(SCc2csc(-c3ccc(Cl)cc3)n2)c(C#N)c(-c2ccc(OCCO)cc2)c1C#N` [Example 21, 2-({(2-(4-chlorophenyl)-1,3-thiazol-4-yl)methyl}sulfanyl)-4-(4-(2-hydroxyethoxy)phenyl)-6-((2-methoxyethyl)(methyl)amino)pyridine-3,5-dicarbonitrile], the values for the EC50 in series [1] and in series [2] were 743 nM and 0.9 nM, respectively. Moreover, the “Reduction … by 1 mg/kg” value in series [4] was 7.5%.
On to `N#Cc1c(SCc2csc(-c3ccc(Cl)cc3)n2)nc(N2CCC(F)(F)C2)c(C#N)c1-c1ccc(OCCO)cc1` [Example 26, 2-({(2-(4-Chlorophenyl)-1,3-thiazol-4-yl)methyl}sulfanyl)-6-(3,3-difluoropyrrolidin-1-yl)-4-(4-(2-hydroxyethoxy)phenyl)pyridine-3,5-dicarbonitrile], for which the concentration for a half-maximal effect (EC50) in series [2] worked out at 0.5 nM; in series [3] it was 1000 nM.
